Four molecules from patent US20090181975A1, “NEBIVOLOL IN THE TREATMENT OF SEXUAL DYSFUNCTION” (FOREST LABORATORIES HOLDINGS LIMITED, priority 2008, published 2009) can be followed below.

In assay [1] the test system is anesthetized rats. Kind of assay: Mean arterial pressure (MAP) and heart rate (HR) in anesthetized rats. The format is in vivo, rat (Sprague-Dawley). To be noted: nebivolol 3 mg/kg i.v.; L-NAME 3 mg/kg, ODQ 1 mg/kg, propranolol 1 mg/kg, sildenafil 0.3 mg/kg i.v.
Experimental: To determine blood pressure and heart rate, Sprague-Dawley rats (250-400 g) were anesthetized with ketolar and diazepam. The right carotid artery was catheterized for constant blood pressure and heart rate measurement by means of a pressure transducer connected to a PowerLab data acquisition system (ADInstruments). The left external jugular vein was catheterized for saline or drug infusion. 3 mg/kg nebivolol (n=6) or vehicle (50% glycofurol; n=4) was administered intravenously in anesthetized rats and MAP and HR were measured. […] The effect of nebivolol in combination with the type 5 phosphodiesterase (PDE-5) inhibitor sildenafil on hypotension and heart rate was studied in rats using the methods described above.
Assay [2] relates to nitrite plus nitrate (NOx) in rat serum. Briefly: Serum nitrite plus nitrate (NOx) by Griess colorimetric method. The format is in vivo. To be noted: nebivolol 3 mg/kg i.v.; L-NAME 3 mg/kg, ODQ 1 mg/kg, propranolol 1 mg/kg, sildenafil 0.3 mg/kg. On the procedure: Total NO derivatives (nitrites plus nitrates) were measured in pre-filtered (10,000 MW pore size) serum samples from the studied rats by the Griess colorimetric method, using a commercial kit for nitrite and nitrate determination from Cayman Chemical Co. (Ann Arbor, Mich.). Serum concentrations of NOx were determined 10 minutes after nebivolol administration.

The test system of assay [3] is cGMP in rat plasma. Kind of assay: Plasma cGMP content by ELISA. The format is in vivo, rat (Sprague-Dawley). To be noted: nebivolol 3 mg/kg i.v.; L-NAME 3 mg/kg, ODQ 1 mg/kg, propranolol 1 mg/kg. On the procedure:
To determine the plasma cGMP content, Sprague-Dawley rats were anesthetized with urethane (1.25 g/kg). The right carotid artery was catheterized for constant blood pressure and heart rate measurement by means of a pressure transducer connected to a PowerLab data acquisition system (ADInstruments). The left external jugular vein was catheterized for saline or drug infusion. After administering the respective treatments, rat plasma samples were collected, immediately frozen and stored at −80° C. until extraction for cyclic nucleotide assay. cGMP was determined by ELISA using a kit from Cayman Chemical Co. Plasmatic cGMP levels were determined 10 minutes after nebivolol administration.

Assay [4] relates to human corpus cavernosum (HCC) strips. Kind of assay: Relaxation of human corpus cavernosum strips contracted with U46619. Format: cell-based. To be noted: metoprolol 1 μM, atenolol 1 μM, nebivolol 0.3 μM. As for the experimental part:
Specimens of human corpus cavernosum were obtained from organ donors and from impotent men at the time of penile prosthesis implantation. Tissues were placed in ice-cold M-400 solution (pH 7.4; 400 mOsm/kg, composition in w/v: 4.19% manitol, 0.2% KH2PO4, 0.97% K2HPO4.3H2O, 0.11% KCl and 0.08% NaHCO3) at the time of removal and transported to the laboratory for utilization within 16 h. Strips of human corpus cavemosum were mounted on force transducers in 8 ml organ baths (37° C.) containing physiological salt solution (PSS) continuously bubbled with 95% O2/5% CO2 mixture to maintain a pH of 7.4. Strips were contracted with the thromboxane receptor agonist U46619 (1-3 nM) and relaxation responses were evaluated by cumulative additions of compounds to the chambers.

Assay [5] deals with human penile resistance arteries (HPRA). Briefly: Relaxation of human penile resistance arteries contracted with U46619 (myograph). The format is cell-based. Set-up: effect on endothelium-dependent relaxation of HPRA caused by acetylcholine / effect on sildenafil-mediated relaxation of HPRA: unit of the concentration uncertain. To be noted: metoprolol (1 (unit uncertain)), atenolol (1 (unit uncertain)), nebivolol (0.3 (unit uncertain)). On the procedure:
Specimens of human corpus cavernosum were obtained from organ donors and from impotent men at the time of penile prosthesis implantation. Tissues were placed in ice-cold M-400 solution (pH 7.4; 400 mOsm/kg, composition in w/v: 4.19% manitol, 0.2% KH2PO4, 0.97% K2HPO4.3H2O, 0.11% KCl and 0.08% NaHCO3) at the time of removal and transported to the laboratory for utilization within 16 h.
To determine the resistance of penile small arteries, helicine arteries (lumen diameter 150-400 μm) which are the terminal branches of deep penile arteries, were dissected by carefully removing the adhering trabecular tissue, and arterial ring segments (2 mm long) were subsequently mounted on two 40 μm wires on microvascular double Halpern-Mulvany myographs (J.P. Trading, Aarhus, Denmark) for isometric tension recordings. The chambers were filled with PSS continuously bubbled with 95% O2/5% CO2 mixture to maintain a pH of 7.4. […]

Turning to `COC(=O)[C@@H](N)CCCNC(=N)N[N+](=O)[O-]` [L-NAME, Nω-nitro-L-arginine methyl ester], in assay [1], the “effect on heart rate reduction caused by nebivolol” value is recorded as “did not affect” and the “effect on hypotension caused by nebivolol” value (“effect on hypotension caused” below) is recorded as “significantly reduced”. Also, in assay [2], the “effect on nebivolol-induced increment in serum NOx” value is reported as “prevents this effect”. Also, in assay [3], the “effect on nebivolol-induced increase in plasma cGMP” value is “slightly reduced”.
On to `O=c1onc2cnc3ccccc3n12` [ODQ, 1-H-(1,2,4)oxadiazolo(4,3-alpha)quinoxaline-1-one], for which, in assay [1], the “effect on heart rate reduction caused by nebivolol” value is given as “did not significantly modify” and the “effect on hypotension caused” value is listed as “did not significantly modify”. Besides, the “effect on nebivolol-induced increment in serum NOx” value in assay [2] is listed as “prevents this effect”. Further, in assay [3], the “effect on nebivolol-induced increase in plasma cGMP” value is reported as “slightly reduced”.
`COCCc1ccc(OCC(O)CNC(C)C)cc1` (stereo not shown) [metoprolol]: in assay [4], the “effect on acetylcholine-induced endothelium-dependent relaxation of HCC strips” value is “not significantly modified”. The “effect on endothelium-dependent relaxation of HPRA caused by acetylcholine” value in assay [5] was “not affected”.
With `CC(C)NCC(O)COc1cccc2ccccc12` (stereo not shown) [propranolol], in assay [1], the “effect on heart rate reduction caused by nebivolol” value is reported as “significantly reduced the impact” and the “effect on hypotension caused” value is “without affecting”. The “effect on nebivolol-induced increase in plasma cGMP” value in assay [3] is given as “not influenced”.
